From US20230211001A1, “Lysosomal Targeting Molecules Comprising Knottin Peptides And Related Compositions And Methods” (The Board of Trustees of the Leland Stanford Junior …, priority 2020, published 2023)
Non-standard residues stand in square brackets, D forms with d. Primed or numbered codes have the meaning given here. No end group written: not given here. Orn(N3)′ = its azide, alkyne or alkene has reacted where a group follows in round brackets; Orn(N3) = [N-]=[N+]=NCCC[C@H](N)C(=O)O; tri‑GalNAc‑DBCO = not defined here

What was measured:
[1] = tested on: cation independent M6PR (CIM6PR); details: compared to mannose-6-phosphate glycans; cited from earlier work
[2] = compared to mannose-6-phosphate glycans; cited from earlier work
[3] = target: integrins that bind to PIP (total surface level on HEPG2 cells); assay: cell-based or functional assay
[4] = target: αvβ3 integrin on HEPG2 cells (UniProt P06756); assay: cell-based or functional assay
[5] = target: T1, integrin αvβ5 (Homo sapiens, UniProt P06756+P18084); assay: Cell surface integrin levels by live-cell flow cytometry in HEPG2 cells, anti-αvβ5 detection; format: cell-based; details: 44 h, 100 nM
T1 construct: endogenous in cells; host or cells: HEPG2
Method: (§1) FIG. 13 Panel A: Synthesis of PIP—GaINAc. Tri-GaINAc-DBCO was conjugated to PIP, a knottin peptide that binds to multiple integrins. Panel B: Degradation of cell surface integrins in HEPG2 cells as determined by live-cell flow cytometry following 44 h of treatment with 100 nM PIP or PIP—GaINAc. Anti-αvβ3, anti-αvβ5 and PIP-Fc fusion construct were used for detection. PIP was genetically fused to the Fc domain of a mouse IgG2a to generate a PIP-Fc fusion construct that measures the surface expression of integrins recognized by PIP. Panel C: Percent proliferation of HEPG2 cells following 44 h of treatment with 50 nM, 100 nM or 200 nM PIP or PIP—GaINAc. Proliferation was quantified by phase confluence over time using IncuCyte. Panel D: Time course of percent proliferation of HEPG2 cells during 44 h of treatment with 200 nM PIP or PIP—GaINAc. Panel E: Percent proliferation of HEPG2 cells for 6 d following wash-out. Cells were treated with 200 nM PIP or PIP—GaINAc on day 0. PIP+ and PIP—GaINAc+ indicate the conditions where cells were washed on day 4 and replaced with fresh medium without treatment. […] P values were determined by unpaired two-tailed t-tests.
(§2) The surface levels of integrins were measured by flow cytometry following treatment in HEPG2 cells. […] Nonetheless, the total surface level of integrins that bind to PIP was determined by utilizing a PIP-Fc fusion for staining of the Fc fragment. […]

[6] = tested on: integrins that bind to PIP; assay: Total surface level of integrins that bind to PIP, PIP-Fc fusion detection, HEPG2 cells; format: cell-based; details: 44 h, 100 nM, flow cytometry
Method: as §1, §2

[7] = tested on: HEPG2 cells; assay: Antiproliferation assay (IncuCyte phase confluence); format: cell-based; details: for cell morphology: 100 nM, live imaging over 5 days following treatment; for antiproliferative phenotype after wash-out: 200 nM on day 0, washed on day 4, followed 6 d
Method: FIG. 13 Panel A: Synthesis of PIP—GaINAc. Tri-GaINAc-DBCO was conjugated to PIP, a knottin peptide that binds to multiple integrins. Panel B: Degradation of cell surface integrins in HEPG2 cells as determined by live-cell flow cytometry following 44 h of treatment with 100 nM PIP or PIP—GaINAc. Anti-αvβ3, anti-αvβ5 and PIP-Fc fusion construct were used for detection. PIP was genetically fused to the Fc domain of a mouse IgG2a to generate a PIP-Fc fusion construct that measures the surface expression of integrins recognized by PIP. Panel C: Percent proliferation of HEPG2 cells following 44 h of treatment with 50 nM, 100 nM or 200 nM PIP or PIP—GaINAc. Proliferation was quantified by phase confluence over time using IncuCyte. Panel D: Time course of percent proliferation of HEPG2 cells during 44 h of treatment with 200 nM PIP or PIP—GaINAc. Panel E: Percent proliferation of HEPG2 cells for 6 d following wash-out. Cells were treated with 200 nM PIP or PIP—GaINAc on day 0. PIP+ and PIP—GaINAc+ indicate the conditions where cells were washed on day 4 and replaced with fresh medium without treatment. PIP++ and PIP—GaINAc++ indicate the conditions where cells were washed on day 4 and replaced with fresh medium containing 200 nM PIP or PIP—GaINAc. Panel F: Live HEPG2 imaging by IncuCyte throughout the 5 d after treatment with 100 nM PIP or PIP—GaINAc. Images are representative of three independent experiments for F. Data in B-E represent three independent experiments, where B and C show the mean of three independent experiments ±s.e.m. P values were determined by unpaired two-tailed t-tests.
HEPG2 cells (100,000 cells per well in a 24-well plate) were treated with various concentrations of PIP or PIP—GaINAc. After treatments were added, cells were imaged every 4 h for the indicated times in the IncuCyte S3 Live-Cell Analysis system using the phase-imaging channel and a ×10 objective. For co-incubation experiments with ASF, 10 mg ml^−1 of ASF (Sigma-Aldrich) was treated with either PIP or PIP—GaINAc. The following analysis parameters were used to quantify phase confluence (%) in the Incucyte software: segmentation adjustment was set to 1, hole fill (μm2) was set to 300 and area minimum (μm^2) was set to 150. No other constraints were selected. Percent proliferation was then calculated by normalizing phase confluence values. Specifically, at any given timepoint n in the treatment time course (t=0→t=n), the change in confluence from t=0 to t=n (Δconfluence t=n) was calculated for each well as follows: Δconfluence t=n of well x=(confluence t=n of well x)−(confluence t=0 of well x), where x represents any given well in the experiment. This ensures that the value of each well is set to 0 at t=0. The average Δconfluence at the final time point of the untreated wells was set as the ‘max value’ (equivalent to 100% proliferation). Finally, data were normalized as follows:
% proliferationt=n=n of well x=(Δconfluencet=n of well x)/(max value),
where it is noted that while the metric is labeled as “% proliferation”, the effects quantitated are the summation of both cell proliferation and cell survival.

[8] = tested on: tumor-associated integrins; details: αvβ3, αvβ5, αvβ6 and α5β1 integrins; cited from earlier work
[9] = target: T2, αvβ3 integrin (Homo sapiens, UniProt P05106+P06756); assay: Cell surface integrin levels by live-cell flow cytometry in HEPG2 cells, anti-αvβ3 detection; format: cell-based; details: 44 h, 100 nM
T2 construct: endogenous in cells; host or cells: HEPG2
Method: as §1, §2

T1 sequence (P06756 31-889 limits assumed): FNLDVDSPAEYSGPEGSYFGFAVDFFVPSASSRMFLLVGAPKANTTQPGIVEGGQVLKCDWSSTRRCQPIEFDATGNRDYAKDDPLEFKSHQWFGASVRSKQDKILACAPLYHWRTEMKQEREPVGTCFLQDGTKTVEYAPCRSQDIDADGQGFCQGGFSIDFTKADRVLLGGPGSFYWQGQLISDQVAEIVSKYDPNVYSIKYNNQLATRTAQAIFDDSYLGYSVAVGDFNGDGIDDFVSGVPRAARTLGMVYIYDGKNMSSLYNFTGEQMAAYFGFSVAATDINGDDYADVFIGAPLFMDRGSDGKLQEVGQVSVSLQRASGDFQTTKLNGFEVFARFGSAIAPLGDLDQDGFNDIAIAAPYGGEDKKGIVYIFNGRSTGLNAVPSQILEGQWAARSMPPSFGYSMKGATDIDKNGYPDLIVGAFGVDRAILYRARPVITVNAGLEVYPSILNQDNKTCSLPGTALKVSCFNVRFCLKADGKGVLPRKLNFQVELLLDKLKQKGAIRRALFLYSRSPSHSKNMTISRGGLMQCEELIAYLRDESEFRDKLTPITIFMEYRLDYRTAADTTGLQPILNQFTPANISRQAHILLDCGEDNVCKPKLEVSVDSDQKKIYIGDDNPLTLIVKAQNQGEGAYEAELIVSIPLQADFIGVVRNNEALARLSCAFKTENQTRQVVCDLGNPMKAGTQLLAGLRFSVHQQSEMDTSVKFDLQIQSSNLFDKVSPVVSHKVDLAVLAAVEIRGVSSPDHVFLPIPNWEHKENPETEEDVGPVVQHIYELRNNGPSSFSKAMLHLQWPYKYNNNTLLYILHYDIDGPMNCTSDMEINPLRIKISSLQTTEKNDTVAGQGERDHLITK
T1 sequence (P06756 891-1048 partner limits assumed): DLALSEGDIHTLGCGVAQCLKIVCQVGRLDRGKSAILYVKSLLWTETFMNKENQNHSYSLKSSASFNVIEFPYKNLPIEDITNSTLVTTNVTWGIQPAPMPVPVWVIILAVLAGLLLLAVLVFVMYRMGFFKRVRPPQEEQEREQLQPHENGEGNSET
T1 sequence (P18084 24-799): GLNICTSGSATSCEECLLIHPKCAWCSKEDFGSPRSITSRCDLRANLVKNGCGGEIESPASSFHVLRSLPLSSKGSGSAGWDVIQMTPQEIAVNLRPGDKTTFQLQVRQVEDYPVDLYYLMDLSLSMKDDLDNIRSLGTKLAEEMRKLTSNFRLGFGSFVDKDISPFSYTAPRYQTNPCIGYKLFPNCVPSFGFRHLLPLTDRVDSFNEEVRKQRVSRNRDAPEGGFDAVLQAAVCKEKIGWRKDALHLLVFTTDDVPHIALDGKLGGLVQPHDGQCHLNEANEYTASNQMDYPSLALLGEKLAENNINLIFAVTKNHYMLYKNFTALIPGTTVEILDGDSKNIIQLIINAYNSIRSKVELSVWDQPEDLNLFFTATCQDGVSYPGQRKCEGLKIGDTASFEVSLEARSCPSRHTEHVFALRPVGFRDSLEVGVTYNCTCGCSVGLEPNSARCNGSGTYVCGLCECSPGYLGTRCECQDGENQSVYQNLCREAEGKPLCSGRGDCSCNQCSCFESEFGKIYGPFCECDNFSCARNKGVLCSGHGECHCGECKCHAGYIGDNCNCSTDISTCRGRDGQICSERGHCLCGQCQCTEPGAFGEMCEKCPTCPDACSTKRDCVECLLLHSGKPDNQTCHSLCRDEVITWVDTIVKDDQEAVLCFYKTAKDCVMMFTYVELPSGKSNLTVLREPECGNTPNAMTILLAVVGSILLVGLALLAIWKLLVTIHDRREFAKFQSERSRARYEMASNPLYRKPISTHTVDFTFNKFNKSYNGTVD
T2 sequence (P06756 31-889 limits assumed): as the sequence (P06756 31-889 limits assumed) above
T2 sequence (P06756 891-1048 partner limits assumed): as the sequence (P06756 891-1048 partner limits assumed) above
T2 sequence (P05106 27-788): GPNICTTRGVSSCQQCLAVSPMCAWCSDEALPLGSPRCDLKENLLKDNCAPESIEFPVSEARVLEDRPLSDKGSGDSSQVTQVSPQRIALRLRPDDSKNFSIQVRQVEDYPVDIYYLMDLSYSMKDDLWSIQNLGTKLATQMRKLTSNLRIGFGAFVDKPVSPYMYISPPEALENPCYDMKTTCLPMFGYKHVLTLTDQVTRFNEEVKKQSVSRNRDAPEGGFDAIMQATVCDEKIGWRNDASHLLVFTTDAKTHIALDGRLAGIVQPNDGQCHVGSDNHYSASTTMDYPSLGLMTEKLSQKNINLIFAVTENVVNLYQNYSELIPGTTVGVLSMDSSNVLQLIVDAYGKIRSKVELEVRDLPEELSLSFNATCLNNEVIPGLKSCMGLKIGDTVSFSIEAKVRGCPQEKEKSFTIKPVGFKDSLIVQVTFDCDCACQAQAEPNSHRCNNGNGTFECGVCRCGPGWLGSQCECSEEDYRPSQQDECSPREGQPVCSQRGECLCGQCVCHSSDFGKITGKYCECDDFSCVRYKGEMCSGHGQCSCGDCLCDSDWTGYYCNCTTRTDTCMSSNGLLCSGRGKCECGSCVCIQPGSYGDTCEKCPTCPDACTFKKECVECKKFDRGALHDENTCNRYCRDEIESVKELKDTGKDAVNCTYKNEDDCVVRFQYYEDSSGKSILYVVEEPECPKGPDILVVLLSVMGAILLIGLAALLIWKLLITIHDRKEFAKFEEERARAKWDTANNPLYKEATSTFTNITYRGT
Sequence of αvβ3 integrin on HEPG2 cells (P06756 31-1048 limits assumed, chain 1 of 2): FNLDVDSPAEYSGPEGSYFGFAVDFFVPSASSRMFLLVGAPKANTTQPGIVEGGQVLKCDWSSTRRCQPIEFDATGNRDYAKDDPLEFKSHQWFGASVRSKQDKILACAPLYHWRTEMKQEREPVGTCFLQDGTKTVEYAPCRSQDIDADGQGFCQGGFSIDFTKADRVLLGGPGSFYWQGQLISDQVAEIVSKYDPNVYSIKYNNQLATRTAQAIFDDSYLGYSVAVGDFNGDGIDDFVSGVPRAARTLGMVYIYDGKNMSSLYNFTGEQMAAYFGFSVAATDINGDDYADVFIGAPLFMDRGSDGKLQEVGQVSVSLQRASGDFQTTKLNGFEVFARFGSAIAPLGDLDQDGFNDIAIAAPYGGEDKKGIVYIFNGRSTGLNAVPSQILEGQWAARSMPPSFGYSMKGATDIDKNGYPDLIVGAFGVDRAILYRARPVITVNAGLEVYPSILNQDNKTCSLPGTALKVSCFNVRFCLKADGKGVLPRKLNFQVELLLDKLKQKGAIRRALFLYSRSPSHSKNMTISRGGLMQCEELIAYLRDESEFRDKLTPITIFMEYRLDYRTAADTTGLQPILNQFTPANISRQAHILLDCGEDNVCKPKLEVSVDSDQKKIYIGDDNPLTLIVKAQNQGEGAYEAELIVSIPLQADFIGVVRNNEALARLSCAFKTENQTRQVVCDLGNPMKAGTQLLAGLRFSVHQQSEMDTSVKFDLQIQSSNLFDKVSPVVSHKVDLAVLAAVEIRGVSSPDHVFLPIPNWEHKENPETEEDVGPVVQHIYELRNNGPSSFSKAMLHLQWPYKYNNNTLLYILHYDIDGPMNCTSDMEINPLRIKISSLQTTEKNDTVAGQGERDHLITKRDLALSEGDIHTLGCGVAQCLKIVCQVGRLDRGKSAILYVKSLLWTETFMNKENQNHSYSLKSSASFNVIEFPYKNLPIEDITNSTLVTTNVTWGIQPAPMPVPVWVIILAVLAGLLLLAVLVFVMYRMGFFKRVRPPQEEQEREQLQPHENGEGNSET
Sequence of αvβ3 integrin on HEPG2 cells (P05106 27-788 limits assumed, chain 2 of 2, further chain): as the sequence (P05106 27-788) above

| Compound | relative binding affinity for the CIM6PR [1] | depletion of total surface integrins that bind to PIP on HEPG2 cells, detected by PIP-Fc staining (flow cytometry) [3] [%] | effect on surface expression of integrin αvβ5 [5] | integrins depleted (detection of PIP-Fc) [6] | cell morphology [7] | antiproliferative phenotype after wash-out [7] | further results |
| --- | --- | --- | --- | --- | --- | --- | --- |
| C=CC(=O)OC[C@@H](O)[C@@H](O)[C@H](O)[C@H](O)C=O [mannose-6-acrylate glycans, mannose-6-acrylate] | 0.7 |  |  |  |  |  | serum stability [2]: better serum stability |
| PIP-GalNAc (PIP conjugated to a single tri-GalNAc-DBCO moiety) (peptide) |  | 60 |  |  |  |  | cell surface αvβ3 integrin level on HEPG2 cells, live-cell flow cytometry after 44 h of treatment with 100 nM [4]: 3 fold |
| PIP: polyspecific integrin-binding knottin peptide, 33-mer (SEQ ID NO:42); 5-azido-L-norvaline at position 15, tyrosine at position 31 (GCPRPRGDNPPLTC[Orn(N3)]QDSDCLAGCVCGPNGYCG; disulfide (positions not given here); not fully specified (bridges); also: further groups not given here) |  |  | increased the expression | 40% | epithelial-like clusters | wash-out rescued proliferation | binding affinity to tumor-associated integrins [8]: high affinity |
| PIP—GaINAc: PIP knottin with azido-norvaline site-specifically conjugated via a single tri-GaINAc-DBCO moiety (GCPRPRGDNPPLTC[Orn(N3)′](tri‑GalNAc‑DBCO)QDSDCLAGCVCGPNGYCG; disulfide (positions not given here); not fully specified (bridges); reading uncertain; also: further groups not given here) |  |  | modest degradation | about 60% | formed smaller, circular clusters | persisted after conjugate wash-out | depletion of cell surface αvβ3 integrin levels relative to PIP treatment alone [9]: threefold; antiproliferative effect on co-incubation with asialofetuin (ASF), inhibitor of ASGPR ([7]; 10 mg ml^−1 ASF): ablated the enhanced antiproliferative effect; inhibition of proliferation ([7]; various concentrations (50, 100, 200 nM) and durations of treatment up to 44 h): substantially more effective at inhibiting proliferation than PIP |
| mannose-6-carboxylate [mannose-6-carboxylate glycans] | 0.3 |  |  |  |  |  |  |
| polyspecific integrin-binding knottin peptide (PIP), synthesized with 5-azido-L-norvaline at position 15 and tyrosine at position 31 |  | 40 |  |  |  |  |  |
